The values that follow come from patent US7615514B2, “Selective herbicides based on substituted arylsulphonylaminocarbonyl-triazolinones and safeners” (Bayer CropScience AG, priority 2001, dated 2009).

Molecules are shown by their SMILES.

The test relates to Winter barley. Put plainly: Post-emergence test/greenhouse: damage to crop plants. The format is in vivo. Particulars: greenhouse, about three weeks after application. As for the experimental part: The active compound (flucarbazone-sodium and propoxycarbazone-sodium were each used as WG 70) or safener components are in each case dissolved in a few ml (generally 2-3 ml) of solvent (generally acetone or N,N-dimethyl-formamide), and the solutions are combined and then—if appropriate after addition of an emulsifier—diluted with water to the desired concentration. In general, an aqueous spray liquor was prepared using 0.5% of the additive Renex-36. The test plants are grown under controlled conditions (temperature, light, atmospheric humidity) in a greenhouse. The test plants are sprayed when they have reached a height of 5-15 cm. The concentration of the spray liquor is chosen such that the particular amounts of active compound desired are applied in 500 l of water/ha. After spraying, the pots with the test plants are kept in a greenhouse chamber under controlled conditions (temperature, light, atmospheric humidity) until the test has ended. About three weeks after the application, the degree of damage to the crop plants is rated in % damage in comparison to the development of the untreated control. The figures denote: • 0%=no damage (like untreated control) • 100%=total destruction/damage

For the molecule `COc1nn(C(=O)NS(=O)(=O)c2ccccc2OC(F)(F)F)c(=O)n1C` [flucarbazone-sodium, 2-(2-trifluoromethoxyphenylsulphonylaminocarbonyl)-4-methyl-5-methoxy-2,4-dihydro-3H-1,2,4-triazol-3-one], the “Damage Winter barley (in %)” value (application rate 8 g of a.i./ha) is on record as 40%.

Consider `CCCOc1nn(C(=O)NS(=O)(=O)c2ccccc2C(=O)OC)c(=O)n1C` [propoxycarbazone-sodium, 2-(2-methoxycarbonylphenylsulphonylaminocarbonyl)-4-methyl-5-n-propoxy-2,4-dihydro-3H-1,2,4-triazol-3-one], for which the “Damage Winter barley (in %)” value (application rate 2 g of a.i./ha) came out at 35% and the “Damage Winter barley (in %)” value (application rate 4 g of a.i./ha, 0%=no damage, 100%=total destruction) is recorded as 60%.
